Source: patent US9617256B2 (priority 2007, dated 2017)
Values after ≈ are worked out from the molar mass of the structure shown. Read-outs that look alike come from different tables or passages of the source.

Columns and labels:
[1] = system: APAE006 (strain of P. aeruginosa in which all efflux pumps are inactivated); experiment: microbe, parasite or virus in culture; format: cell-based; settings: Pseudomonas aeruginosa, read-out: MIC APAE006, APAE006, all efflux pumps inactivated
In short: (§1)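 (ambient air) in cation-adjusted MHB; inoculum from 0.5 McFarland suspensions, final 3×10^5–7×10^5 CFU/mL; 2-fold serial drug dilutions per CLSI. APAE006: P. aeruginosa with all efflux pumps inactivated.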

APAE001 (ATCC27853) = experiment: MIC broth microdilution, APAE001; format: cell-based, P. aeruginosa; settings: Pseudomonas aeruginosa, ATCC27853, read-out: MIC APAE001, APAE001 (ATCC27853)
In short: (§2)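 Growth inhibition was scored by CLSI broth microdilution using cation-adjusted Mueller-Hinton broth and a final inoculum between 3×10^5 and 7×10^5 CFU/mL, incubated 18-24 hours at 35° C.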

[2] = system: ASAU001 (laboratory strain of S. aureus, ATCC29213); experiment: MIC broth microdilution, ASAU001; format: cell-based; settings: Staphylococcus aureus, ATCC29213, read-out: MIC ASAU001
In short: as §2

[3] = system: APAE006 in the presence of 8 micrograms per milliliter of polymyxin B nonapeptide; format: cell-based, P. aeruginosa; settings: APAE006 with 8 micrograms per milliliter polymyxin B nonapeptide
In short: as §1

AECO001 (ATCC25922) = experiment: MIC broth microdilution, AECO001; format: cell-based, E. coli; settings: for MIC: Escherichia coli
In short: as §2

[4] = system: AECO063 (ATCC25922 bearing an acrAB mutation); experiment: microbe, parasite or virus in culture; format: cell-based, E. coli; settings: Escherichia coli, ATCC25922, read-out: MIC AECO063
In short: as §2

[5] = system: AABA1060 (clinical isolate of Acinetobacter baumannii); experiment: MIC broth microdilution, AABA1060; format: cell-based; settings: Acinetobacter baumannii, read-out: MIC AABA1060
In short: as §2

[6] = ATCC25922, read-out: MIC AECO001
[7] = ATCC25922, read-out: MIC AECO001 HSA AGP

| Compound | MIC [1] [µg/mL] | MIC (APAE001 (ATCC27853)) [µg/mL] | MIC [2] [µg/mL] | MIC APAE006 + PMBN [3] | MIC (AECO001 (ATCC25922); [6]) [µg/mL] | MIC (AECO001 (ATCC25922); [7]) [µg/mL] | MIC [4] [µg/mL] | MIC [5] [µg/mL] | Ratio of MICs on AECO001 [Cpd (A = —CHCH3NH2)/Cpd (A = —C(CH3)2NH2)] (AECO001 (ATCC25922); MIC of paired compound with A = —CHCH3NH2 divided by MIC of compound with A = —C(CH3)2NH2, n=2 data, pairs identical except for the A moiety) |
| --- | --- | --- | --- | --- | --- | --- | --- | --- | --- |
| CC(C)(O)[C@H](NC(=O)c1ccc(C#Cc2ccc(CN3CCCOCC3)cc2)cc1)C(=O)NO [Example 122-8] | < 2 | < 2 | 16 to 64 (≈ 34.4 to 137 µM) | A (MIC's of 2.0 μg/mL or less = A) | < 2 | < 2 | < 2 | 2 to 16 (≈ 4.3 to 34.4 µM) |  |
| C[C@@H](N)[C@H](NC(=O)c1ccc(C#Cc2ccc(COC3CC3)cc2)cc1)C(=O)NO [Example 123-1, N-((1S,2R)-2-Amino-1-hydroxycarbamoyl-propyl)-4-(4-cyclopropoxymethyl-phenylethynyl)-benzamide] | < 2 | 2 to 16 (≈ 4.91 to 39.3 µM) | 16 to 64 (≈ 39.3 to 157 µM) | A (MIC's of 2.0 μg/mL or less = A) | < 2 | 2 to 16 (≈ 4.91 to 39.3 µM) | < 2 | 2 to 16 (≈ 4.91 to 39.3 µM) |  |
| C[C@@H](N)[C@H](NC(=O)c1ccc(C#Cc2ccc(COCC(F)(F)F)cc2)cc1)C(=O)NO [Example 124-1, N-((1S,2R)-2-Amino-1-hydroxycarbamoyl-propyl)-4-[4-(2,2,2-trifluoro-ethoxymethyl)-phenylethynyl]-benzamide] | < 2 | 2 to 16 (≈ 4.45 to 35.6 µM) | 16 to 64 (≈ 35.6 to 142 µM) | A (MIC's of 2.0 μg/mL or less = A) | < 2 | 2 to 16 (≈ 4.45 to 35.6 µM) | < 2 | 16 to 64 (≈ 35.6 to 142 µM) |  |
| CC(C)OCc1ccc(C#Cc2ccc(C(=O)N[C@H](C(=O)NO)[C@@H](C)N)cc2)cc1 [Example 124-2] | < 2 | 2 to 16 (≈ 4.88 to 39.1 µM) | 16 to 64 (≈ 39.1 to 156 µM) | A (MIC's of 2.0 μg/mL or less = A) | < 2 | 2 to 16 (≈ 4.88 to 39.1 µM) | < 2 | 2 to 16 (≈ 4.88 to 39.1 µM) |  |
| C[C@@H](N)[C@H](NC(=O)c1ccc(C#Cc2ccc(OC3CC3)cc2)cc1)C(=O)NO [Example 125-1, N-((1S,2R)-2-Amino-1-hydroxycarbamoyl-propyl)-4-(4-cyclopropoxy-phenylethynyl)-benzamide] | < 2 | 2 to 16 (≈ 5.08 to 40.7 µM) | 16 to 64 (≈ 40.7 to 163 µM) | A (MIC's of 2.0 μg/mL or less = A) | < 2 | 2 to 16 (≈ 5.08 to 40.7 µM) | < 2 | < 2 |  |
| CCOCc1ccc(C#Cc2ccc(C(=O)N[C@H](C(=O)NO)C(C)(C)N)cc2)cc1 [Example 126-1, N—((S)-2-Amino-1-hydroxycarbamoyl-2-methyl-propyl)-4-(4-ethoxymethyl-phenylethynyl)-benzamide] | < 2 | < 2 | 16 to 64 (≈ 39.1 to 156 µM) | A (MIC's of 2.0 μg/mL or less = A) | < 2 | < 2 | < 2 | < 2 |  |
| C[C@@H](N)[C@H](NC(=O)c1ccc(C#Cc2ccc(NC(=O)CNC3CC3)cc2)cc1)C(=O)NO [Example 130-1, N-((1S,2R)-2-Amino-1-hydroxycarbamoyl-propyl)-4-[4-(2-cyclopropylamino-acetylamino)-phenylethynyl]-benzamide] | < 2 | < 2 | 16 to 64 (≈ 35.6 to 142 µM) | A (MIC's of 2.0 μg/mL or less = A) | 2 to 16 (≈ 4.45 to 35.6 µM) | 16 to 64 (≈ 35.6 to 142 µM) | < 2 | 2 to 16 (≈ 4.45 to 35.6 µM) |  |
| O=C(CNC1CC1)NC[C@H](NC(=O)c1ccc(C#Cc2ccccc2)cc1)C(=O)NO [Example 132-1, N—[(S)-2-(2-Cyclopropylamino-acetylamino)-1-hydroxycarbamoyl-ethyl]-4-phenylethynyl-benzamide] | < 2 | 2 to 16 (≈ 4.76 to 38.1 µM) | 16 to 64 (≈ 38.1 to 152 µM) | A (MIC's of 2.0 μg/mL or less = A) | < 2 | 2 to 16 (≈ 4.76 to 38.1 µM) | < 2 | 2 to 16 (≈ 4.76 to 38.1 µM) |  |
| C[C@@H](NC(=O)CNC1CC1)[C@H](NC(=O)c1ccc(C#Cc2ccccc2)cc1)C(=O)NO [Example 132-2] | < 2 | 2 to 16 (≈ 4.6 to 36.8 µM) | 16 to 64 (≈ 36.8 to 147 µM) | A (MIC's of 2.0 μg/mL or less = A) | < 2 | 2 to 16 (≈ 4.6 to 36.8 µM) | < 2 | 16 to 64 (≈ 36.8 to 147 µM) |  |
| C[C@@H](NCC(=O)NC[C@H](NC(=O)c1ccc(C#Cc2ccccc2)cc1)C(=O)NO)c1ccccc1 [Example 132-3] | < 2 | 16 to 64 (≈ 33 to 132 µM) | 16 to 64 (≈ 33 to 132 µM) | A (MIC's of 2.0 μg/mL or less = A) | < 2 | 2 to 16 (≈ 4.13 to 33 µM) | < 2 | 2 to 16 (≈ 4.13 to 33 µM) |  |
| C[C@@H](NCC(=O)N[C@H](C)[C@H](NC(=O)c1ccc(C#Cc2ccccc2)cc1)C(=O)NO)c1ccccc1 [Example 132-6] | < 2 | 16 to 64 (≈ 32.1 to 128 µM) | 16 to 64 (≈ 32.1 to 128 µM) | A (MIC's of 2.0 μg/mL or less = A) | 2 to 16 (≈ 4.01 to 32.1 µM) | 16 to 64 (≈ 32.1 to 128 µM) | < 2 | 16 to 64 (≈ 32.1 to 128 µM) |  |
| CC(C)(N)[C@H](NC(=O)c1ccc(C#Cc2ccccc2)cc1)C(=O)NO [Example 133-6] | < 2 | < 2 | 2 to 16 (≈ 5.69 to 45.5 µM) | A (MIC's of 2.0 μg/mL or less = A) | < 2 | < 2 | < 2 | < 2 | 20.8 |
| C[C@@H](O)[C@H](NC(=O)c1ccc(C#Cc2ccncc2)cc1)C(=O)NO [Example 133-13] | < 2 | 16 to 64 (≈ 47.1 to 189 µM) | 16 to 64 (≈ 47.1 to 189 µM) | A (MIC's of 2.0 μg/mL or less = A) | 16 to 64 (≈ 47.1 to 189 µM) | 16 to 64 (≈ 47.1 to 189 µM) | 2 to 16 (≈ 5.89 to 47.1 µM) | 16 to 64 (≈ 47.1 to 189 µM) |  |
| CC(C)(O)[C@H](NC(=O)c1ccc(C#Cc2ccccc2)cc1)C(=O)NO [Example 133-14] | < 2 | 2 to 16 (≈ 5.68 to 45.4 µM) | 16 to 64 (≈ 45.4 to 182 µM) | A (MIC's of 2.0 μg/mL or less = A) | < 2 | < 2 | < 2 | < 2 |  |
| CC(C)(O)[C@H](NC(=O)c1ccc(C#Cc2ccncc2)cc1)C(=O)NO [Example 133-15] | < 2 | 2 to 16 (≈ 5.66 to 45.3 µM) | 16 to 64 (≈ 45.3 to 181 µM) | A (MIC's of 2.0 μg/mL or less = A) | 2 to 16 (≈ 5.66 to 45.3 µM) | 2 to 16 (≈ 5.66 to 45.3 µM) | < 2 | 2 to 16 (≈ 5.66 to 45.3 µM) |  |
| CC(C)(N)[C@H](NC(=O)c1ccc(C#CC2CC2c2ccccc2)cc1)C(=O)NO (stereo partly drawn) [Example 134-1, N—((S)-2-Amino-1-hydroxycarbamoyl-2-methyl-propyl)-4-(2-phenyl-cyclopropylethynyl)-benzamide] | < 2 | 2 to 16 (≈ 5.11 to 40.9 µM) | 16 to 64 (≈ 40.9 to 163 µM) | A (MIC's of 2.0 μg/mL or less = A) | 2 to 16 (≈ 5.11 to 40.9 µM) | 2 to 16 (≈ 5.11 to 40.9 µM) | < 2 | < 2 |  |
| C[C@@H](N)[C@H](NC(=O)c1ccc(C#CC2CC2c2ccccc2)cc1)C(=O)NO (stereo partly shown) [Example 134-2] | < 2 | 2 to 16 (≈ 5.3 to 42.4 µM) | 16 to 64 (≈ 42.4 to 170 µM) | A (MIC's of 2.0 μg/mL or less = A) | 2 to 16 (≈ 5.3 to 42.4 µM) | 16 to 64 (≈ 42.4 to 170 µM) | 2 to 16 (≈ 5.3 to 42.4 µM) | 2 to 16 (≈ 5.3 to 42.4 µM) |  |
| NC[C@H](NC(=O)C#Cc1ccc(C#CCN2CCOCC2)cc1)C(=O)NO [Example 137-10] | 16 to 64 (≈ 43.2 to 173 µM) | > 64 | > 64 | C (MIC's of greater than 16.0 μg/mL to 64.0 μg/mL = C) | > 64 | > 64 | > 64 | > 64 |  |
